Each compound was assayed on Plasmodium falciparum (assay: GSK_TCMDC: Inhibition of Plasmodium falciparum 3D7 in whole erythrocytes, using parasite LDH activity as an index of growth.). Settings: Plasmodium falciparum, 3D7.
Assay type: functional, organism-based
`COC(=O)CCCCOc1c(OC)cc(Cc2cnc(N)nc2N)cc1OC` was tested, and the XC50 was 39.3 nM. With `CCN(CC)CCN(Cc1ccc(-c2ccc(Cl)s2)cc1)C(=O)Cn1c(CCc2cccc(F)c2F)nc(=O)c2ccccc21` the XC50 was 1140 nM. `O=C(/C=C/c1ccc(Cl)c(Cl)c1)NCCCCCN1CCCN(C(=O)Nc2ccc(Cl)cc2)CC1` showed an XC50 of 735 nM. `CCCCn1c(Sc2ccc(C#N)c([N+](=O)[O-])c2)nnc1-c1ccc(OC)cc1` showed an XC50 of 1030 nM. `CCCc1cc(Cc2cnc(N)nc2N)cc(OC)c1OC` showed an XC50 of 988 nM. Work on `Cc1cc(C)nc(-n2[nH]c(C)c(Cc3ccc(C(C)(C)C)cc3)c2=O)n1` yielded an XC50 of 1010 nM. Compound `FC(F)(F)c1cc(Nc2ccc(Oc3ccccc3)cc2)c2cc(-c3ccncc3)ccc2n1` has an XC50 of 454 nM. For `Cc1ccc(NC(=O)c2ccc3ncccc3c2)cc1OC1CCN(Cc2ccc(F)cc2)CC1`, the XC50 was 944 nM. Work on `CCNC(=O)Nc1ccc(N(C)c2ccnc(Nc3ccc(CS(C)(=O)=O)cc3)n2)cc1` yielded an XC50 of 88.8 nM. Work on `CCOc1ccc(-c2nonc2NC(=O)c2ccc(F)cc2)cc1OCC` yielded an XC50 of 327 nM. With `NC1CCN(Cc2ccc(-c3ccc(-c4nc5cc(F)ccc5[nH]4)s3)cc2)C1` (stereo not drawn) the XC50 was 646 nM. For `O=C(N[C@@H](Cc1ccccc1)[C@H](O)CNC1CCCc2ccccc21)c1cc(C2CCCC2)cc(N2CCCC2=O)c1` (stereo partly drawn), the XC50 was 162 nM. `CCc1nc2c(cnn2CC)c(NC2CCOCC2)c1CNC(=O)c1ccoc1C` was tested, and the XC50 was 886 nM. For `CCNc1cc(C)nc(Nc2ccc(NC(=O)c3cccs3)cc2)n1`, the XC50 was 1020 nM. Compound `O=C(Nc1cccc(-c2cccc(-c3nc4ccccc4[nH]3)c2)c1)c1ccncc1` has an XC50 of 479 nM. `COc1cccc(Nc2nc(C)cc(Nc3cccc(C#N)c3)n2)c1` showed an XC50 of 1080 nM. `CCNc1cc(C(=O)N[C@@H](Cc2ccccc2)[C@H](O)CNCCc2cccc3ccccc23)cc(N2CCCC2=O)c1` gave an XC50 of 982 nM. With `CN1CCC(NCc2ccc(S(=O)(=O)Nc3ccc(Oc4cccc(Cl)c4)cc3)cc2)CC1` the XC50 was 735 nM. `c1ccc(-c2cc(NCCCCNc3cc(-c4ccccc4)nc4ccccc34)c3ccccc3n2)cc1` showed an XC50 of 133 nM. `Cc1ccccc1C1CCN(C2CCC(NC(=O)/C=C/c3c(F)ccc(F)c3F)CC2)CC1` (stereo not drawn) was tested, and the XC50 was 1260 nM. Compound `c1ccc(CN2CCC(NCc3ccccc3-c3ccc(CNCc4ccc5c(c4)OCO5)cc3)CC2)cc1` has an XC50 of 326 nM. `C[C@@H](COc1ccccc1)NCC(O)c1ccc([N+](=O)[O-])c(OCc2ccccc2)c1` (stereo partly drawn) was tested, and the XC50 was 994 nM. With `O=C(Cn1c2ccccc2c(=O)c2ccc(Cl)cc21)Nc1ccc(C(F)(F)F)cc1` the XC50 was 530 nM. In the case of `CN(Cc1cccc(O)c1)C1CCN(c2cc(NC(=O)c3ccc(F)cc3)ccn2)CC1`, the XC50 was 956 nM. `CCCCc1cc(=O)oc2cc(C)cc(OCc3ccccc3F)c12` gave an XC50 of 1030 nM. `COc1ccc2nccc([C@@H](O)CN3CCC(NCc4ccc5c(c4)oc(=S)n5C)CC3)c2c1` was tested, and the XC50 was 187 nM. `CS(=O)(=O)Cc1ccc(Nc2nccc(N3CCCc4cc(NC(=O)Nc5cccc(C(F)(F)F)c5)ccc43)n2)cc1` showed an XC50 of 148 nM. With `COc1ccc2nccc(N(C)CC3(O)CCN(CCc4ccc5c(c4)OCCO5)CC3)c2n1` the XC50 was 143 nM. For `CN(C)C1CCN(Cc2ccc(N3CCN(Cc4cccc5[nH]ccc45)CC3)nc2)CC1`, the XC50 was 1530 nM. With `COc1ccc2nccc([C@@H](O)CN3CCC(NCc4nc5ccc(F)cc5[nH]4)CC3)c2c1` the XC50 was 732 nM. Work on `Cc1cccc2nc(-c3ccc(-c4ccc(NC(=O)Nc5cccc(C#N)c5)cc4)s3)[nH]c12` yielded an XC50 of 117 nM. In the case of `O=C(CCN(Cc1ccco1)c1nc(-c2ccc(F)cc2)nc2ccccc12)NC1CC1`, the XC50 was 1580 nM. Compound `O=C(Nc1cccc(CN2CCCN(Cc3ccc(O)cc3)CC2)c1)c1cccc(Cl)c1` has an XC50 of 908 nM. For `Cn1c(=O)c2cc(C(=O)NCCCN3CCCCCC3)sc2c2ccccc21`, the XC50 was 689 nM. For `N#Cc1ccc(N(CCOC(=O)c2ccccc2)Cc2ccccc2C(F)(F)F)cc1C(F)(F)F`, the XC50 was 921 nM. Compound `CCOC(=O)c1ccc(N2CCCCC2)c(NC(=O)C(Cl)(Cl)Cl)c1` has an XC50 of 849 nM. `COc1cccc(-c2ccc(O)c(CNCCc3cccc(F)c3)c2)n1` gave an XC50 of 914 nM. `CN1CCC(NCc2ccc(-c3cccc(S(=O)(=O)NCc4ccccc4)c3)cc2)CC1` gave an XC50 of 324 nM. `COc1cc(C)nc2ccc(NC(=O)Nc3ccccc3[N+](=O)[O-])cc12` gave an XC50 of 837 nM. `Cc1noc(-c2ccc3c(c2)CCN(CCC2CCC(NC(=O)/C=C/c4ccc(F)cc4)CC2)CC3)n1` (stereo not drawn) was tested, and the XC50 was 1030 nM. Compound `COc1ccc2c(NN=Cc3ccc(N(C)C)cc3)ccnc2c1` has an XC50 of 663 nM. `O=C(Nc1cccc(CN2CCN(Cc3cccc(O)c3)CC2)c1)c1cc2ccccc2s1` was tested, and the XC50 was 1120 nM. With `Cc1noc(C)c1-c1ccc2c(Nc3ccccc3N3CCOCC3)c(C(=O)NCc3ccccc3)cnc2c1` the XC50 was 1180 nM. `O=C(N[C@H]1CCN(CCc2ccc(O[C@H]3CCNC3)cc2)C1)c1ccc(Cl)c(Cl)c1` gave an XC50 of 828 nM. With `CCCCCc1cc(OC(=O)CCCN(CC)CC)c2c(c1)OC(C)(C)C=C2C1=CCN(Cc2ccc3ccccc3c2)CC1` the XC50 was 156 nM. With `O=c1c(Br)c(C(F)(F)F)[nH]c2ccc(Oc3ccccc3)cc12` the XC50 was 1100 nM. `CCN(CC)CCNC(=O)/C(=C/C=C/c1cc2cc(Cl)c(Cl)cc2[nH]1)OC` showed an XC50 of 927 nM. `Oc1ccc(CCNCCCCCCNCCc2ccc(-c3ccccc3)cc2)cc1O` was tested, and the XC50 was 603 nM. `CN(Cc1cccc(F)c1)C1CCN(c2cc(NC(=O)c3ccc(F)cc3)ccn2)CC1` gave an XC50 of 1160 nM. Compound `Cc1noc(C)c1-c1ccc2c(Nc3ccccc3C(C)(C)C)c(C(=O)NCc3cccc4ccccc34)cnc2c1` has an XC50 of 941 nM. `CCCCCNc1nc(Nc2ccccc2C)nc2ccccc12` showed an XC50 of 735 nM. With `CC(C)[C@H](NC(=O)c1ccc(O)c(-c2ccc(Cl)c(Cl)c2)c1)C(=O)NCCN1CCCC1` the XC50 was 929 nM. Work on `Cc1cc2nc(-c3ccc(C(=O)NC4CCN(Cc5ccccc5)CC4)s3)[nH]c2cc1C` yielded an XC50 of 771 nM. `CCN(CCCN1CCCCC1)c1cc(C)nc(Nc2ccc(C)cc2Cl)n1` gave an XC50 of 339 nM. `CCCCCc1cnc2nc(N)nc(N)c2c1C` showed an XC50 of 211 nM. For `NC(=S)Cc1ccc2c(c1)OCO2`, the XC50 was 284 nM. For `COc1ccc(Cn2c(Nc3cccc(C(F)(F)F)c3)nc3cc(C(=O)NC4CC4)cnc32)cc1Cl`, the XC50 was 727 nM. Compound `COc1cc(F)c2ncc(Cl)c(CCN3CCC(NCc4ccc5c(c4)OCCO5)CC3)c2c1` has an XC50 of 469 nM. In the case of `O=C(NC1CCCCN(Cc2ccccc2O)C1)c1cccc(Cl)c1` (stereo not drawn), the XC50 was 1060 nM. With `COc1cc(C=CC(=O)NC2CCC(CN3CCC(c4c[nH]c5ccccc45)CC3)CC2)cc(OC)c1` (stereo not drawn) the XC50 was 807 nM. `CN1CCN(CCCN(Cc2csc(-c3ccc(CNCc4ccccc4)cc3)n2)C(=O)Nc2ccc3ccccc3c2)CC1` showed an XC50 of 1100 nM. `CC(=O)Nc1sc(C)c(C)c1CN1CCc2ccccc2C1` was tested, and the XC50 was 616 nM. `CCOC(=O)CN1Cc2cc(NCc3ccc4ccc5nc(C)[nH]c(=O)c5c4c3)ccc2C1=O` gave an XC50 of 700 nM. `CNC(=O)c1ccccc1Nc1nc(Nc2ccc(CCN3CCN(C)CC3)cc2)ncc1Cl` gave an XC50 of 651 nM. `CC(C)CC(=O)N(Cc1ccc(-c2ccc(CNC3Cc4ccccc4C3)cc2)cc1)C1CCNCC1` showed an XC50 of 1170 nM. With `CCOC(=O)CCc1cc(F)c(F)c(OC[C@H](O)CNC(C)(C)C(O)c2ccc3ccccc3c2)c1` (stereo partly drawn) the XC50 was 859 nM. Compound `O=C(NCCCN1CCN(c2cccc(Cl)c2)CC1)c1ccc(-c2nc3cc(Cl)c(Cl)cc3[nH]2)cc1` has an XC50 of 697 nM. Work on `COc1cc(CC2c3cc(O)c(Cl)cc3CCN2C)c(OC)cc1C` (stereo not drawn) yielded an XC50 of 713 nM. Compound `CCc1nc2nc(C)cc(Nc3cc(C)cc(C)c3)n2n1` has an XC50 of 294 nM. With `CC(C)C[C@@H](C(=O)N[C@@H](CCCCNC(=O)OCc1ccccc1)C(=O)Nc1nccs1)[C@H](C)N(O)C=O` the XC50 was 190 nM. In the case of `O=C(NC1CCC(N2CCC(O)(c3ccc(F)cc3)CC2)CC1)c1cc2ccccc2[nH]1` (stereo not drawn), the XC50 was 736 nM. `CC(=O)Nc1ccc(C(=O)Nc2cccc(-c3cccc(-c4nc5cc(F)ccc5[nH]4)c3)c2)cn1` was tested, and the XC50 was 134 nM. In the case of `COc1ccc(Cl)cc1N1CCN(CCCNC(=O)c2ccc(-c3nc4cc(Cl)c(C)cc4[nH]3)s2)CC1`, the XC50 was 776 nM. For `Cc1ccc(NC(=O)NCCCCCN2CCC(c3c[nH]c4ccccc34)CC2)cc1I`, the XC50 was 815 nM. With `COc1ccc(C=C2SC(=N)N(c3ccccc3OC)C2=O)cc1` the XC50 was 300 nM. Work on `Cc1cc(C(=O)CN2C(=O)NC3(CCOc4ccccc43)C2=O)c(C)n1Cc1ccc(F)cc1` (stereo not drawn) yielded an XC50 of 881 nM. `Brc1cc(Br)c2c(c1)C(NCCCNc1nc3ncccc3[nH]1)CCN2` (stereo not drawn) showed an XC50 of 595 nM. With `Cc1ccc(N2C(=O)C3C(C2=O)C2(c4ccccc4)C(=O)C3(c3ccccc3)C(c3ccccc3)=C2c2ccccc2)c(C)c1` (stereo not drawn) the XC50 was 529 nM. For `Nc1nc(N)c2c(ccc3c2ccn3CCCC2CCCNC2)n1` (stereo not drawn), the XC50 was 898 nM. `CN1CCCN(c2ccnc3cc4c(cc23)N(C(=O)c2ccc(Cl)cc2Cl)CC4)CC1` showed an XC50 of 812 nM. `Oc1cccc(C2CCCN(Cc3cccc4cc[nH]c34)C2)c1` (stereo not drawn) gave an XC50 of 507 nM. For `Cc1cc(OCc2ccccc2)c(OCc2ccccc2)cc1C(O)CN(C)Cc1ccccc1` (stereo not drawn), the XC50 was 809 nM. With `CCCc1cc(Cc2cnc(N)nc2N)cc(CCC)c1O` the XC50 was 277 nM. `FC(F)(F)c1ccccc1OCc1cc(-c2ccncc2)c(COc2ccccc2C(F)(F)F)cc1C1=CCNCC1` showed an XC50 of 890 nM. In the case of `Cc1cc(=O)c(-c2ccc(Oc3ccc(C(F)(F)F)cc3)cc2)c(C)n1O`, the XC50 was 604 nM. `CN(C)CCCOc1ccc(CN2CC[C@H](NC(=O)c3ccc(Cl)c(Cl)c3)C2)cc1Br` showed an XC50 of 763 nM. With `Cc1ccc2[nH]c(C)cc(=NN=Cc3cccc(Cl)c3)c2c1` the XC50 was 739 nM. For `Cc1cc(Nc2ccc3c(c2)CCC3)n2ncnc2n1`, the XC50 was 967 nM. Compound `Cc1cccc2nc(-c3ccc(-c4ccc(CN5CCCCC5)cc4)s3)[nH]c12` has an XC50 of 521 nM. `NC(=O)c1cccc(C(=O)Nc2cccc(-c3csc(-c4nc5ccccc5[nH]4)c3)c2)c1` gave an XC50 of 133 nM. `COc1ccc(-c2cncc3ccc(C(=O)NCc4ccncc4)nc23)cc1` showed an XC50 of 736 nM. Compound `COc1cc(CNc2ncc(-c3ccsc3)c(-c3nccs3)n2)cc(OC)c1` has an XC50 of 126 nM. Work on `CC1=C(C(=O)OCCOCc2ccccc2)C(c2ccccc2C(F)(F)F)C(C(=O)OCCOCc2ccccc2)=C(C)N1` yielded an XC50 of 532 nM. `Cc1cc(N2CCCC2)nc(Nc2ccc(NC(=O)Nc3ccccc3)cc2)n1` was tested, and the XC50 was 165 nM. `CC[C@H]1CN2CC[C@H]1C[C@H]2[C@H](O)c1cc(-c2cccc(F)c2)nc2ccc(OC)cc12` showed an XC50 of 58.2 nM. `COc1ccc(C2C(C(=O)OC3CCCCC3)=C(C)NC3=C2C(=O)CCC3)cc1Br` (stereo not drawn) gave an XC50 of 579 nM. For `Clc1ccc(CNc2ccnc(NCCc3coc4ccccc34)n2)c(Cl)c1`, the XC50 was 1170 nM. `COc1cccc(CCc2nc3c(N4CCC(Cc5ccccc5)CC4)cccc3n2CC2CNCCO2)c1` (stereo not drawn) showed an XC50 of 800 nM.

Reference: ChEMBL document CHEMBL1157539, “Thousands of chemical starting points for antimalarial lead identification” (Nature, 2010)
